The source of these data is publication PMC2859821 (Molecular pharmaceutics, 2009).

For series [1] the following is noted: statement in abstract; no data in this paper; cited from earlier work.
The test system of the next series is three types of cells. The conditions noted are these: cited from earlier work.
The subject of the next series is HeLa cells. The following applies: 100 nM nocodazole 16 h, 10 μM, 40 min; in contrast to interphase cells.

Regarding “5(6)-Carboxyfluorescein-R.I.-CKTat9 [Flu-R.I.-CKTat9]”, the “cell surface-bound amount at 0 °C in KPBS versus PBS” value in the series with HeLa cell surface is reported as “no difference”.

As for “Acetyl-dC-dK-dR-dR-dR-dQ-dR-dR-dK-dK-dR-CONH2 [R.I.-CKTat9]”, the proteolytic stability entry in series [1] is “proteolytically stable”.

As for polyarginine, the “reduction of cell-associated fluorescence by high potassium buffer” value in the series on three types of cells is listed as “more than 90%”.

In the case of rhodamine-R.I.-CKTat9 [Rho-R.I.-CKTat9], the “uptake by HeLa cells arrested in M phase (microscopy)” value with HeLa cells was “did not take up”.
